Entries after “also recorded” stand apart in the source; their conditions may differ. Non-standard residues stand in square brackets, D forms with d. Residues, ends and D or L forms follow the SMILES beside them. *: point of attachment. GlcA(β-D,1-O-dodecyl) = CCCCCCCCCCCCO[C@@H]1O[C@H](C(=O)*)[C@@H](O)[C@H](O)[C@H]1O; hArg = N=C(N)NCCCC[C@H](N)C(=O)O; Nle = CCCC[C@H](N)C(=O)O; Ac5c = NC1(C(=O)O)CCCC1; Aib = CC(C)(N)C(=O)O
Tests used:
mu opioid receptor = target: T1, mu opioid receptor (Homo sapiens, UniProt P35372); experiment: mu opioid receptor cellular assay (MOP, agonist and antagonist mode), cAMP readout, Cerep; assay type: cell-based; details: for Characterization: MOP agonist mode and DOP antagonist mode
T1 construct: Cerep SA (contract research organization)
T1 sequence (P35372 whole entry): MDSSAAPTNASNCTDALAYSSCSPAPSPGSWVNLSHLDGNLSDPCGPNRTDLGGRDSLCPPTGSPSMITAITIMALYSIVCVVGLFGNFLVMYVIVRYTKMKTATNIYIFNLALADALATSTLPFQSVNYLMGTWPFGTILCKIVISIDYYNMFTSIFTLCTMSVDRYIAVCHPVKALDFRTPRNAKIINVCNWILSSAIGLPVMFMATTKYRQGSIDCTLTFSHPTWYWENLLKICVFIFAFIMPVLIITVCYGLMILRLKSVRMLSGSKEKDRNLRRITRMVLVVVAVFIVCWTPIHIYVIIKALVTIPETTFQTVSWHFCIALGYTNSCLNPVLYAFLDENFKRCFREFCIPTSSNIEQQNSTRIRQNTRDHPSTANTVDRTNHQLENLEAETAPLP
Protocol: (§1) Compounds were weighed precisely in an amount of approximately 2 mg and assayed in standard cellular assays by the contract research organization Cerep, Inc. (Pullman, Wash.) as executed at their subsidiary, Cerep SA (Le Bois l'Eveque, France). The readout is the amount of cAMP generated in the cells treated with the test compounds, in either agonist or antagonist mode. The assays used were the mu opioid receptor cellular assay (MOP in agonist and antagonist mode), the delta2 opioid receptor cellular assay (DOP in agonist and antagonist mode) and the kappa opioid receptor cellular assay (KOP in agonist and antagonist mode). The assays used are described in Wang, J. B., et al. (1994) FEBS Lett 338: 217-222, Law, P. Y. and Loh, H. H. (1993) Mol Pharmacol 43: 684-693, and Avidor-Reiss, T., et al. (1995) FEBS Lett 361: 70-74. The stimulant for the cells in the DOR antagonist assay was 3×10E-8M DPDPE, a well-accepted DOR literature standard.

delta2 opioid receptor = target: T2, delta2 opioid receptor (Mus musculus, UniProt P32300); experiment: delta2 opioid receptor cellular assay (DOP, agonist and antagonist mode), cAMP readout, Cerep; assay type: cell-based; details: in competition with 30 nM DPDPE
T2 construct: Cerep SA (contract research organization)
T2 sequence (P32300 whole entry): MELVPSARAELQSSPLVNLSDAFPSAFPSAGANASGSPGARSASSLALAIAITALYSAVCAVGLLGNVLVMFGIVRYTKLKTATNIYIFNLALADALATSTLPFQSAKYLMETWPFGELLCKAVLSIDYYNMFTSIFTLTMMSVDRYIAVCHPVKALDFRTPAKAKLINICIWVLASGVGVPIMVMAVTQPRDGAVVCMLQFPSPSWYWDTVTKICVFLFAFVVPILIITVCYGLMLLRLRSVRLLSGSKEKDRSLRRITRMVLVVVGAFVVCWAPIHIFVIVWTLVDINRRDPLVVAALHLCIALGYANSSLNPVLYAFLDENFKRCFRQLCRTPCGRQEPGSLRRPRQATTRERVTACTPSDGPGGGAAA
Protocol: as §1

[1] = in water; cited from earlier work
[2] = blood PO4 and Ca levels in rats after a single sc injection; assay type: in vivo, rat; details: for blood calcium levels versus control (saline/vehicle): 80 (PTH, EU-232) or 320 (EU-232), all time points; for blood PO4 levels, 80 mcg groups: PO4 did not further diminish after 1 hour
From the text: Following the method of Frolik, C.

[3] = target: T3, PTH1 (PTHR1), SaOS2 cells (Homo sapiens, UniProt Q03431); experiment: PTH1 cellular assay, cAMP generated in SaOS2 cells, Cerep; assay type: cell-based
T3 construct: host or cells: SaOS2 cells (as named in the result head)
T3 sequence (Q03431 27-593): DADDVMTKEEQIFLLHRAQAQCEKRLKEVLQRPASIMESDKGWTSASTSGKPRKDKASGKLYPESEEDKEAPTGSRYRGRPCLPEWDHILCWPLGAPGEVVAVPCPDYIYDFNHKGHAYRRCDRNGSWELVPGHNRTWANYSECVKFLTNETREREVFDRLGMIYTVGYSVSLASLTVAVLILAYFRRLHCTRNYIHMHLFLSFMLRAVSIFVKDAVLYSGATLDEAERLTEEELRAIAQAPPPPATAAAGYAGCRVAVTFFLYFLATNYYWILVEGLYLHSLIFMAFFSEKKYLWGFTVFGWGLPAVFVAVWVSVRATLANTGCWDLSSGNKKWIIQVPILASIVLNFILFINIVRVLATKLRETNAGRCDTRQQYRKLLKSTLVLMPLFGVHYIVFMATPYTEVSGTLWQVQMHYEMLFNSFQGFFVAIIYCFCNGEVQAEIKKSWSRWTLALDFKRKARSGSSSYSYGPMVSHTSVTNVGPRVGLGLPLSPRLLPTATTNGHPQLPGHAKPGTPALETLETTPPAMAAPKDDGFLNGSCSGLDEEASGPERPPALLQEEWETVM
Protocol: Compounds were weighed precisely in an amount of approximately 1 mg and assayed in standard cellular assays (cerep SA). The readout is the amount of cAMP generated in the cells treated with the test compounds, in either agonist or antagonist mode.
Compounds were dissolved in water and diluted in assay buffer containing 1% bovine serum albumin.

2′,6′-dimethyl-L-tyrosyl-L-1,2,3,4-tetrahydroisoquinoline-3-carbonyl-L-phenylalanyl-Nε-(1′-methyl R-D-glucuronyl)-L-lysyl-amide [EU-A178]
behavior in the MOP agonist assay (FIG. 11) (mu opioid receptor): potent, full agonistic behavior | Characterization (mu opioid receptor): Pure MOP Ag; pure DOP antag | action on the DOP receptor (FIG. 11) (delta2 opioid receptor): highly potent action as a pure antagonist

CCCCCCCCCCCCCCO[C@@H]1O[C@H](CO)[C@@H](O[C@@H]2O[C@@H](CO)[C@H](O)[C@@H](O)[C@@H]2O)[C@H](O)[C@H]1O (stereo in doubt) [Tetradecyl maltoside]
CMC [1]: 0.01 mM

CCCCCCCCCCCCCO[C@@H]1O[C@H](CO)[C@@H](OC2OC(CO)C(O)C(O)C2O)[C@H](O)[C@H]1O (stereo in doubt) [Tridecyl maltoside]
CMC [1]: 0.03 mM

CCCCCCCCCCO[C@@H]1O[C@H](CO)[C@@H](O[C@H]2O[C@H](CO)[C@@H](O)[C@H](O)[C@H]2O)[C@H](O)[C@H]1O [Decyl maltoside]
CMC [1]: 1.8 mM

CCCCCCCCCCCCO[C@@H]1O[C@H](CO)[C@@H](O[C@H]2O[C@H](CO)[C@@H](O)[C@H](O)[C@H]2O)[C@H](O)[C@H]1O [Dodecyl-β-D-maltoside]
CMC [1]: 0.17 mM

CCCCCCCCCCCCO[C@@H]1O[C@H](C(=O)NCCCC[C@H](NC(=O)C(C)(C)NC(=O)[C@H](CCC(N)=O)NC(=O)[C@@H](NC(=O)[C@H](Cc2c[nH]c3ccccc23)NC(=O)[C@H](CCCNC(=N)N)NC(=O)[C@H](C)NC(=O)[C@H](CCCCNC(=N)N)NC(=O)[C@H](CCC(N)=O)NC(=O)[C@H](Cc2c[nH]cn2)NC(=O)[C@H](CCCC)NC(=O)[C@H](CC(C)C)NC(=O)[C@H](CCC(N)=O)NC(=O)[C@@H](NC(=O)[C@H](CCC(=O)O)NC(=O)C(C)(C)NC(=O)[C@@H](NC(=O)C2(N)CCCC2)C(C)C)[C@@H](C)CC)[C@@H](C)CC)C(=O)NC(C)(C)C(N)=O)[C@@H](O)[C@H](O)[C@H]1O [EU-232] (H-[Ac5c]V[Aib]EIQL[Nle]HQ[hArg]ARWIQ[Aib]K(GlcA(β-D,1-O-dodecyl))[Aib]-NH2)
time of maximal statistically significant effect on blood phosphate ([2]; rat serum, sc dosing, last time point of the assay (FIG. 6)): 5 h | blood calcium levels versus control (saline/vehicle) ([2]; rat, sc): No groups were statistically significantly different from control | blood calcium at maximally effective dose and time point ([2]; rat, sc, G4 320, at 5 hrs): no elevation | blood PO4 levels, 80 mcg groups ([2]; rat, single sc injection): transient but not statistically significant decrease | maximal decrease of blood PO4 from time 0 hr. level ([2]; rat, single sc injection, seen at the 5 hr. time point, statistically significant): 25-35% | Characterization [3]: agonist | character of the cellular cAMP response [3]: super-agonistic response; also recorded: super-agonistic activity

CCCCCCCCO[C@@H]1O[C@H](CO)[C@@H](O[C@H]2O[C@H](CO)[C@@H](O)[C@H](O)[C@H]2O)[C@H](O)[C@H]1O [Octyl maltoside]
CMC [1]: 19.5 mM

CC[C@H](C)[C@H](NC(=O)[C@H](CCC(=O)O)NC(=O)[C@H](CO)NC(=O)[C@@H](NC(=O)[C@@H](N)CO)C(C)C)C(=O)N[C@@H](CCC(N)=O)C(=O)N[C@@H](CC(C)C)C(=O)N[C@@H](CCSC)C(=O)N[C@@H](Cc1cnc[nH]1)C(=O)N[C@@H](CC(N)=O)C(=O)N[C@@H](CC(C)C)C(=O)NCC(=O)N[C@@H](CCCCN)C(=O)N[C@@H](Cc1cnc[nH]1)C(=O)N[C@@H](CC(C)C)C(=O)N[C@@H](CC(N)=O)C(=O)N[C@@H](CO)C(=O)N[C@@H](CCSC)C(=O)N[C@@H](CCC(=O)O)C(=O)N[C@@H](CCCN=C(N)N)C(=O)N[C@H](C(=O)N[C@@H](CCC(=O)O)C(=O)N[C@@H](Cc1c[nH]c2ccccc12)C(=O)N[C@@H](CC(C)C)C(=O)N[C@@H](CCCN=C(N)N)C(=O)N[C@@H](CCCCN)C(=O)N[C@@H](CCCCN)C(=O)N[C@@H](CC(C)C)C(=O)N[C@@H](CCC(N)=O)C(=O)N[C@@H](CC(=O)O)C(=O)N[C@H](C(=O)N[C@@H](Cc1cnc[nH]1)C(=O)N[C@@H](CC(N)=O)C(=O)N[C@@H](Cc1ccccc1)C(=O)O)C(C)C)C(C)C [PTH, reference compound]
blood calcium levels versus control (saline/vehicle) ([2]; rat, sc): No groups were statistically significantly different from control | blood PO4 levels, 80 mcg groups ([2]; rat, single sc injection): transient but not statistically significant decrease

Dmt-Tic-Phe-D-Lys(C1-glucuronyl)-Aib-NH2 [EU-A615]
Characterization (mu opioid receptor): Pure MOP Ag; pure DOP antag

Dmt-Tic-Phe-Phe-Lys(C12-glucuronyl)-NH2 [EU-A190]
Characterization (mu opioid receptor): Pure MOP Ag; pure DOP antag

Sucrose dodecanoate
CMC [1]: 0.3 mM

From patent US10420844B2, “Peptide pharmaceuticals” (Mederis Diabetes LLC, priority 2011, dated 2019)
